The text below walks through data of publication PMC7501995 (Cell metabolism, 2020).

One assay concerns human subjects with T1D. The settings on record: ref Ovalle et al., 2018; cited from earlier work.
For assay [1], the system named is C57BL/6J mice rendered diabetic by multiple low-dose STZ. Briefly: Multiple low-dose STZ-induced diabetes in C57BL/6J mice. The following applies: STZ mice. The class given is in vivo, mouse.

For the compound `COc1ccc(CCN(C)CCCC(C#N)(c2ccc(OC)c(OC)c2)C(C)C)cc1OC` (stereo not drawn) [verapamil], the “effect in randomized controlled trial in human subjects with T1D” value in the assay on human subjects with T1D is “beneficial effects”. Regarding `OC[C@H]1O[C@@H](c2ccc(Cl)c(Cc3ccc(O[C@H]4CCOC4)cc3)c2)[C@H](O)[C@@H](O)[C@@H]1O` [empagliflozin, reference compound], the glucose homeostasis result in assay [1] (empagliflozin 10 mg/kg/day in drinking water) is reported as “improved glucose homeostasis”. Take `CN(C)C(=N)N=C(N)N` [metformin, reference compound]: in assay [1] (metformin 250 mg/kg/day in drinking water), the glucose homeostasis result is “improved glucose homeostasis”.
